Data: patent US20110152166A1, “METHOD OF MODULATION OF PROTEIN PHOSPHORYLATION-DEPENDENT CONFORMATIONAL TRANSITIONS WITH LOW MOLECULAR WEIGHT COMPOUNDS” (priority 2006, published 2011)
Ends that are not written are not given here.

Experiments:
GST-PDK1 [Gln150Lys] = biological target: T1, GST-PDK1 [Gln150Lys] (Homo sapiens, UniProt O15530, Q150K); assay: PDK1 activity assay with T308tide; assay type: biochemical
T1 construct: different protein constructs, comprising the full length protein or the catalytic domain alone; made in house; host or cells: HEK293 cells (pEBG-2T-PDK1 mutant)
T1 sequence (O15530 1-556 Q150K): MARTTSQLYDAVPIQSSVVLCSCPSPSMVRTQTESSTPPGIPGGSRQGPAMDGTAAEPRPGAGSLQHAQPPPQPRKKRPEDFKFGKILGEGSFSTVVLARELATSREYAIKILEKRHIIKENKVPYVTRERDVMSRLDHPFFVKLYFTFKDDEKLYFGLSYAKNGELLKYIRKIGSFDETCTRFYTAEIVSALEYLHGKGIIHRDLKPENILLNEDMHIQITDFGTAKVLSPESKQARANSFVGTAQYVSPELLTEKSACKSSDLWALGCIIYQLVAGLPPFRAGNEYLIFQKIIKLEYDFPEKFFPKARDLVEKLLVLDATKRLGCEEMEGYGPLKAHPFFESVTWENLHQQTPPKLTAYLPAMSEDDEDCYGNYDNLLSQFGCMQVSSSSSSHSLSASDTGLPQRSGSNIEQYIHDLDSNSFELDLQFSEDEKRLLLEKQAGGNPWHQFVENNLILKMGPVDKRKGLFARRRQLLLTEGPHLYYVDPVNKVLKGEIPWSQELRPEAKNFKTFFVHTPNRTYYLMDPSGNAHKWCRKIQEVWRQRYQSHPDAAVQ

PDK1 50-360 = biological target: T2, PDK1 50-360 (Homo sapiens, UniProt O15530); assay: PDK1 activity assay with T308tide; assay type: biochemical; conditions: for AC50 / Max. activity: PDK1 50-360; for activation of PDK1 CD wt (in words): catalytic domain 50-360 wild type
T2 construct: the catalytic domain of PDK1 (50-359) produced in SF9 insect cells; His-tag (pFastbac-HT, TEV site) (N, cleaved yes); made in house; host or cells: Sf9 insect cells (baculovirus, pFastbac-HT)
T2 sequence (O15530 50-359): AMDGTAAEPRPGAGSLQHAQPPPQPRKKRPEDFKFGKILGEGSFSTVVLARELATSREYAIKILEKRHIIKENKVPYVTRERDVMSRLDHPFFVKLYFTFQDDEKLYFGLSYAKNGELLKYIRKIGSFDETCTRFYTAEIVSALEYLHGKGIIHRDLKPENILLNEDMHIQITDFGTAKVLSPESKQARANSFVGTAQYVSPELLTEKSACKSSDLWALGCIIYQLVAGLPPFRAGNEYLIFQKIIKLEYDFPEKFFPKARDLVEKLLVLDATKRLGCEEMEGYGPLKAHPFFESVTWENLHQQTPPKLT

| Compound | AC50 (GST-PDK1 [Gln150Lys]) [µM] | Max. activity (GST-PDK1 [Gln150Lys]) [U/mg] | AC50 (PDK1 50-360) [µM] | Max. activity (PDK1 50-360) [U/mg] | activation of PDK1 CD wt (in words) (PDK1 50-360) |
| --- | --- | --- | --- | --- | --- |
| O=C(O)CSC(CC(=O)c1ccc(Cl)cc1)c1ccccc1 (stereo not shown) [Compound 1] | 15 ± 4 | 1.37 ± 0.06 | 38 ± 8 | 3.46 ± 0.19 | activated |
| REPRILSEEEQEMFRDFDYIADWC [PIFtide, reference compound] | 0.29 ± 0.05 | 2.7 ± 0.2 | 0.17 ± 0.09 | 2.62 ± 0.18 | activated |
